Experimental data published in paper PMC9944328 (Nature Communications, 2023).

How the values were obtained:
SSTR2 mutants [1] = assay: SSTR2 internalization by ELISA, HEK293, 30 min 37 °C (mutants); assay type: cell-based, human; details: I284ECL3A, K291A, N276A, F294A, Bystander BRET or confocal
Description: HEK293 cells were seeded into 96-well microplates at a density of 4 × 10^4 cells/well and cultured for 24 h at 37 °C with 5% CO2 and were transfected using the same procedure as the cAMP accumulation assay. The plates were washed with washing buffer (PBS) the day after transfection, and were fixed with 4% formalin at room temperature for 30 min. Cells were washed with washing buffer and blocked with PBS supplemented with 5% BSA for 1 h at room temperature. After that, cells were incubated with anti-Flag antibody (1:1000 diluted with PBS containing 5% BSA, Proteintech: 66008-4-Ig) for 1 h at room temperature. After 1 h incubation, cells were washed with washing buffer and incubating with HRP-conjugated secondary antibody for 2 h at room temperature. After incubating and washing, 50 μl of chromogenic solution was added to each well, and reacted at room temperature for 10 min, and then 0.5 M HCl were added to stop the reaction.
All data presented are means at least three independent experiments.

SSTR2 mutants [2] = molecular target: SSTR2 mutants (Homo sapiens, UniProt P30874, F265A); assay: Bystander BRET endosomal trafficking (β-arrestin 1-Nluc, FYVE-mVenus), HEK293 (SSTR2 mutants); details: HEK293;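 note: Read-out is the BRET ratio between Nluc-fused β-arrestin 1 and the early endosome marker FYVE-mVenus, measured after ligand addition with coelenterazine h as substrate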;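 for Bottom: percent of maximal wild-type response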;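 for Span: percent of maximal wild-type response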;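 for Top: percent of maximal wild-type response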
Sequence of SSTR2 mutants (Homo sapiens, UniProt P30874, F265A) (P30874 whole entry F265A, the tested form may be a part): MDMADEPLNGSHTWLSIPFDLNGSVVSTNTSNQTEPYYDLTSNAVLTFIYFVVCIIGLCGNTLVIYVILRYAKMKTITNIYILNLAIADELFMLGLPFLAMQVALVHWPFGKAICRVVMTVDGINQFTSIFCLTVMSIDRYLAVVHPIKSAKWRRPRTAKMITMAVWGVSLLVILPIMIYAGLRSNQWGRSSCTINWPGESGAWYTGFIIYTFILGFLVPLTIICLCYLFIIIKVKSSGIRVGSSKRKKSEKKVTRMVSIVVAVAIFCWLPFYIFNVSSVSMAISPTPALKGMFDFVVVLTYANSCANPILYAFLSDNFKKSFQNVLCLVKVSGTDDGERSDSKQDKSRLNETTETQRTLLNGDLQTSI
Description: (§1) Wild-type or mutant SSTR2, β-arrestin 1-Nluc and FYVE-mVenus were co-transfected in HEK293 cells at a ratio of 1:0.5:4 on six-well plates. The next day, the transfected cells were plated on white 96-well and incubated overnight, and then cells were incubated with 90 µL HBSS containing 20 mM HEPES and coelenterazine h (5 µM) at room temperature for 40 min. After incubation, ligand was added and the signal was measured using the Synergy H1 microplate reader (BioTek) to determine a BRET ratio.

SSTR2 mutants [3] = molecular target: SSTR2 mutants (Homo sapiens, UniProt P30874, I130A); assay: as above; details: HEK293
Sequence of SSTR2 mutants (Homo sapiens, UniProt P30874, I130A) (P30874 whole entry I130A): as the sequence (P30874 whole entry F265A, the tested form may be a part) above, with I130A, A265F counted along it
Description: as §1

SSTR2 mutants [4] = molecular target: SSTR2 mutants (Homo sapiens, UniProt P30874, I284A); assay: as above; details: for Bottom: Best-fit values
Sequence of SSTR2 mutants (Homo sapiens, UniProt P30874, I284A) (P30874 whole entry I284A): as the sequence (P30874 whole entry F265A, the tested form may be a part) above, with A265F, I284A counted along it
Description: as §1

SSTR2 mutants [5] = molecular target: SSTR2 mutants (Homo sapiens, UniProt P30874, K291A); assay: as above; details: for Bottom: best-fit
Sequence of SSTR2 mutants (Homo sapiens, UniProt P30874, K291A) (P30874 whole entry K291A): as the sequence (P30874 whole entry F265A, the tested form may be a part) above, with A265F, K291A counted along it
Description: as §1

SSTR2 mutants [6] = molecular target: SSTR2 mutants (Homo sapiens, UniProt P30874, R140A); assay: as above; details: Best-fit values
Sequence of SSTR2 mutants (Homo sapiens, UniProt P30874, R140A) (P30874 whole entry R140A): as the sequence (P30874 whole entry F265A, the tested form may be a part) above, with R140A, A265F counted along it
Description: as §1

SSTR2 mutants [7] = molecular target: SSTR2 mutants (Homo sapiens, UniProt P30874, W269A); assay: as above; details: for Bottom: Best-fit values
Sequence of SSTR2 mutants (Homo sapiens, UniProt P30874, W269A) (P30874 whole entry W269A): as the sequence (P30874 whole entry F265A, the tested form may be a part) above, with A265F, W269A counted along it
Description: as §1

SSTR2 mutants [8] = molecular target: SSTR2 mutants (Homo sapiens, UniProt P30874, Y312A); assay: as above; details: Best-fit values
Sequence of SSTR2 mutants (Homo sapiens, UniProt P30874, Y312A) (P30874 whole entry Y312A): as the sequence (P30874 whole entry F265A, the tested form may be a part) above, with A265F, Y312A counted along it
Description: as §1

SSTR2 mutants [9] = assay: as above
Description: as §1

With `C[C@@H](O)[C@@H]1NC(=O)[C@H](CCCCN)NC(=O)[C@@H](Cc2c[nH]c3ccccc23)NC(=O)[C@H](Cc2ccccc2)NC(=O)[C@@H](NC(=O)[C@H](N)Cc2ccccc2)CSSC[C@@H](C(=O)N[C@H](CO)[C@@H](C)O)NC1=O` [octreotide] the Internalization of mutants (SSTR2 mutants [1]) was “diminished internalization”, the Emax (SSTR2 mutants [2]) was 56.1 ± 4.14% and the Emax (SSTR2 mutants [3]) was 68.2 ± 4.05%. It also gave a Bottom (SSTR2 mutants [4]; I284A-1) of 1.002, a Bottom (SSTR2 mutants [4]; I284A-2) of 9.91 and an Emax (SSTR2 mutants [4]; HEK293) of 94.8 ± 4.62%. The Emax (SSTR2 mutants [5]; HEK293) was 68 ± 8.22%, the Bottom (SSTR2 mutants [5]; K291A-1, run 1) was -10.2 and the Bottom (SSTR2 mutants [5]; K291A-2, run 2) was 2.053. The Bottom (SSTR2 mutants [6]; R140A-1) was 0.00472, the Bottom (SSTR2 mutants [6]; R140A-2) was -1.087 and the Bottom (SSTR2 mutants [7]; W269A-1) was -0.7468. The Bottom (SSTR2 mutants [7]; W269A-2) was -3.268, the Emax (SSTR2 mutants [7]; HEK293) was 14.5 ± 3.19% and the Bottom (SSTR2 mutants [8]; Y312A-1) was 0.5637. The Bottom (SSTR2 mutants [8]; Y312A-2) was -0.6682, the LogEC50 (SSTR2 mutants [9]; Best-fit values, I284A-1) was -6.559 and the Top (SSTR2 mutants [9]; Best-fit values, I284A-1) was 94.85. It also gave a LogEC50 (SSTR2 mutants [9]; Best-fit values, I284A-2) of -7.171, a Top (SSTR2 mutants [9]; Best-fit values, I284A-2) of 92.19 and a LogEC50 (SSTR2 mutants [9]; Best-fit values, P220A-1) of -6.023. It also gave a Span (SSTR2 mutants [9]; Best-fit values, P220A-1) of 31.36, a Top (SSTR2 mutants [9]; Best-fit values, P220A-1) of 20.27 and a LogEC50 (SSTR2 mutants [9]; Best-fit values, P220A-2) of -7.589. For the same compound, the Span (SSTR2 mutants [9]; Best-fit values, P220A-2) was 32.52, the Top (SSTR2 mutants [9]; Best-fit values, P220A-2) was 39.01 and the LogEC50 (SSTR2 mutants [9]; Best-fit values, R140A-1) was -8.238. It also gave a Span (SSTR2 mutants [9]; Best-fit values, R140A-1) of 48.38, a Top (SSTR2 mutants [9]; Best-fit values, R140A-1) of 48.39 and a LogEC50 (SSTR2 mutants [9]; Best-fit values, R140A-2) of -8.282. For the same compound, the Span (SSTR2 mutants [9]; Best-fit values, R140A-2) was 47.34, the Top (SSTR2 mutants [9]; Best-fit values, R140A-2) was 46.25 and the EC50 (SSTR2 mutants [9]; Best-fit values, W269A-1) was 0.642 nM. The LogEC50 (SSTR2 mutants [9]; Best-fit values, W269A-1) was -9.192, the Span (SSTR2 mutants [9]; Best-fit values, W269A-1) was 18.76 and the Top (SSTR2 mutants [9]; Best-fit values, W269A-1) was 18.02. The EC50 (SSTR2 mutants [9]; Best-fit values, W269A-2) was 0.132 nM, the LogEC50 (SSTR2 mutants [9]; Best-fit values, W269A-2) was -9.88 and the Span (SSTR2 mutants [9]; Best-fit values, W269A-2) was 17.57. It also gave a Top (SSTR2 mutants [9]; Best-fit values, W269A-2) of 14.3, an EC50 (SSTR2 mutants [9]; Best-fit values, Y312A-1) of 10.2 nM and a LogEC50 (SSTR2 mutants [9]; Best-fit values, Y312A-1) of -7.991. The Span (SSTR2 mutants [9]; Best-fit values, Y312A-1) was 45.08, the Top (SSTR2 mutants [9]; Best-fit values, Y312A-1) was 45.64 and the EC50 (SSTR2 mutants [9]; Best-fit values, Y312A-2) was 10.3 nM. For the same compound, the LogEC50 (SSTR2 mutants [9]; Best-fit values, Y312A-2) was -7.988, the Span (SSTR2 mutants [9]; Best-fit values, Y312A-2) was 40.73 and the Top (SSTR2 mutants [9]; Best-fit values, Y312A-2) was 40.06. For the same compound, the “Internalization of microswitch mutants” value (SSTR2 mutants [9]; alanine substitution of microswitch residues) was “reduced receptor internalization”, the EC50 (SSTR2 mutants [9]; best-fit, I284A-1, run 1) was 276 nM and the Span (SSTR2 mutants [9]; best-fit, I284A-1, run 1) was 93.85. It also gave an EC50 (SSTR2 mutants [9]; best-fit, I284A-2, run 2) of 67.5 nM, a Span (SSTR2 mutants [9]; best-fit, I284A-2, run 2) of 82.28 and an EC50 (SSTR2 mutants [9]; best-fit, K291A-1, run 1) of 1610 nM. The LogEC50 (SSTR2 mutants [9]; best-fit, K291A-1, run 1) was -5.793, the Span (SSTR2 mutants [9]; best-fit, K291A-1, run 1) was 78.24 and the Top (SSTR2 mutants [9]; best-fit, K291A-1, run 1) was 68.05. The EC50 (SSTR2 mutants [9]; best-fit, K291A-2, run 2) was 615 nM, the LogEC50 (SSTR2 mutants [9]; best-fit, K291A-2, run 2) was -6.211 and the Span (SSTR2 mutants [9]; best-fit, K291A-2, run 2) was 78.94. For the same compound, the Top (SSTR2 mutants [9]; best-fit, K291A-2, run 2) was 80.99.
